Experimental findings from patent US20050165032A1, “Vanilloid receptor ligands and their use in treatments” (priority 2004, published 2005) are described below.

Broadly, the melting point is the temperature, or range, at which the solid turns liquid. As to `Cl.Clc1ccc2c(Nc3ccc4c(c3)OCCO4)ncnc2c1`, the melting point lay in the range of 304 to 306 °C.
As for `CC(=O)Nc1nc2c(Nc3ncnc4cc(Cl)ccc34)cccc2s1` [Example 2, N-[4-(7-Chloro-quinazolin-4-ylamino)-benzothiazol-2-yl]-acetamide], the figure is 229.8 °C.
As for `FC(F)(F)c1ccc(Nc2ncnc3c2CCN(c2ncccc2C(F)(F)F)C3)cn1` [Example 10, (6-Trifluoromethyl-pyridin-3-yl)-[7-(3-trifluoromethyl-pyridin-2-yl)-5,6,7,8-tetrahydro-pyrido[3,4-d]pyrimidin-4-yl]-amine], the figure is 144.5 to 150 °C; as for `CC(C)(C)c1ccc(Oc2ncnc3cc(-c4ncccc4C(F)(F)F)ccc23)cc1` [Example 17, 4-(4-tert-Butyl-phenoxy)-7-(3-trifluoromethyl-pyridin-2-yl)-quinazoline], 162 to 163 °C.
